Laboratory results from patent US8268846B2, “Amino heterocyclic linked pyrimidine derivatives” (Abbott Laboratories, priority 2008, dated 2012).

How the values were obtained:
[1] = molecular target: T1, histamine H4 receptor (Homo sapiens, UniProt Q9H3N8); assay: In vitro histamine H4 potency in FLIPR (Ca2+ flux, HEK-293 cells coexpressing Gαqi5); type: cell-based; conditions: for Potency: Kb values for antagonists and inverse agonists, block of histamine-induced fluorescence
T1 construct: expressed in transfected cells
Excerpt: There are many methods available to show the effectiveness of compounds as histamine H4 receptor ligands. Histamine H4 receptors from mammalian species have been cloned. Methods to clone, express, and assess the potency and functional activity of such cloned genes are well known to those skilled in the art of molecular biology. Examples of methods of cloning and expressing histamine H4 receptors, and of assessing the potency and functional activity are described in Nguyen, et al. Molecular Pharmacology (2001) vol. 59 pp. 427-433; Zhu, et al. Molecular Pharmacology (2001) vol. 59 pp. 434-441; Coge, et al., Biochemical and Biophysical Research Communications (2001) vol. 284, pp. 301-309; Liu, et al. Molecular Pharmacology (2001) vol. 59 pp. 420-426; Liu, et al. Journal of Pharmacology and Experimental Therapeutics (2001) v. 299, pp. 121-130; and Thurmond, et al. Journal of Pharmacology and Experimental Therapeutics (2004) v. 309, pp. 404-413. In the present case, to determine the potency and effectiveness of representative compounds of this invention as histamine-H4 receptor ligands (H4 receptor ligands), the following tests were conducted according to previously described methods (see Esbenshade, et al., Biochemical Pharmacology (2004), vol. 68, pp. 933-945, and in Krueger, et al., Journal of Pharmacology and Experimental Therapeutics (2005) v. 314, pp. 271-281): histamine H4 receptors were cloned and stably expressed in HEK-293 (human embryonic kidney) cells coexpressing a Gαqi5. Before testing, cells are loaded with a Ca^+2 sensitive fluorescent dye, in this case Fluo-4 (Invitrogen, Carlsbad, Calif.). In the case of partial agonist or agonist ligands, addition of compound to the cells leads to the increase in intracellular Ca^+2 which is detected by FLIPR (Fluorescence Imaging Plate Reader; Molecular Devices, Sunnyvale, Calif.) technology. In a similar manner, compounds that are antagonists or inverse agonists, block the increase in fluorescence induced by the full histamine H4 agonist histamine, and partial agonists reduce the amount of fluorescence induced by the full histamine H4 agonist histamine. The fluorescence intensities measured before addition of the test compound are subtracted from the fluorescence intensities at later time points. Peak response values determined at each concentration of ligand are expressed as a percentage of the response obtained with the full agonist histamine. Concentration versus response data are analyzed to obtain compound potency as Kb values for antagonists and inverse agonists and as EC50 values for partial agonists.

[2] = molecular target: T1, histamine H4 receptor; assay: [3H]-histamine competition binding assay, membranes of HEK-293 cells transfected with histamine H4 receptor; conditions: displacing 3H-histamine; Ki by Cheng-Prusoff equation; read-out: Potency
Method: The potency of compounds of the invention in displacing ^3H-histamine in competition binding assays is assessed by methods described in Esbenshade, et al., Biochemical Pharmacology (2004), vol. 68, pp. 933-945. In this assay, membranes were prepared from HEK-293 cells transiently transfected with the pCINeo expression vector harboring the histamine H4 receptor by homogenization of the cells on ice in TE buffer (50 mM Tris-HCl buffer, pH 7.4, containing 5 mM EDTA), 1 mM benzamidine, 2 μg/mL aprotinin, 1 μg/mL leupeptin, and 1 μg/mL pepstatin. The homogenate was centrifuged at 40,000 g for 20 minutes at 4° C. This step was repeated, and the resulting pellet was resuspended in TE buffer. Aliquots were frozen at −70° C. until needed. On the day of assay, membranes were thawed and diluted with TE buffer. Competition radioligand binding assays were performed with increasing concentrations of test compound in the presence of [^3H]-histamine incubated at 25° C. for 1 hour in a total volume of 0.5 mL of 50 mM Tris, 5 mM EDTA, pH 7.4. All binding reactions were terminated by filtration under vacuum onto polyethylenimine (0.3%) presoaked Unifilters (PerkinElmer Life Sciences) or Whatman GF/B filters (Whatman, Clifton, N.J.) followed by three brief washes with 4 mL of ice-cold TE buffer. Bound radiolabel was determined by liquid scintillation counting. For all of the radioligand competition binding assays, IC50 values and Hill slopes were determined by Hill transformation of the data and Ki values were determined by the Cheng-Prusoff equation. The following table of representative histamine H4 receptor ligands is provided, along with potency values: […]

| SMILES | Potency [1] [nM] | Ki [2] [nM] | EC50 ([1]; EC50 values for partial agonists) [nM] |
| --- | --- | --- | --- |
| Nc1nccc(NCCNc2cc(-c3ccccc3)nc(N)n2)n1 [Example 5, N^4-{2-[(2-aminopyrimidin-4-yl)amino]ethyl}-6-phenylpyrimidine-2,4-diamine] | 8.7 |  |  |
| Nc1nccc(NCCNc2cc(-c3cccc(Cl)c3)nc(N)n2)n1 [Example 6, N^4-{2-[(2-aminopyrimidin-4-yl)amino]ethyl}-6-(3-chlorophenyl)pyrimidine-2,4-diamine] | 2.5 | 6.6 |  |
| Nc1nccc(NCCNc2cc(-c3cc(Cl)cc(Cl)c3)nc(N)n2)n1 [Example 7, N^4-{2-[(2-aminopyrimidin-4-yl)amino]ethyl}-6-(3,5-dichlorophenyl)pyrimidine-2,4-diamine] | 69 |  |  |
| COc1ccc(Cl)cc1-c1cc(NCCNc2ccnc(N)n2)nc(N)n1 [Example 8, N^4-{2-[(2-aminopyrimidin-4-yl)amino]ethyl}-6-(5-chloro-2-methoxyphenyl)pyrimidine-2,4-diamine] | 589 |  |  |
| Nc1nccc(NCCNc2cc(/C=C/c3ccccc3)nc(N)n2)n1 [Example 9, N^4-{2-[(2-aminopyrimidin-4-yl)amino]ethyl}-6-[(E)-2-phenylvinyl]pyrimidine-2,4-diamine] | 85 | 20 |  |
| Nc1nccc(NCCNc2nc(N)nc3c2CCCC32CCCC2)n1 [Example 10, N^4′-{2-[(2-aminopyrimidin-4-yl)amino]ethyl}-6′,7′-dihydro-5′H-spiro[cyclopentane-1,8′-quinazoline]-2′,4′-diamine] | 32 | 7.4 |  |
| Nc1nccc(NCCNc2ncnc3c2oc2ccccc23)n1 [Example 12, N^4-[2-([1]benzofuro[3,2-d]pyrimidin-4-ylamino)ethyl]pyrimidine-2,4-diamine] | 2089 |  |  |

The remaining lines, values ahead:

| Potency [1] [nM] | Ki [2] [nM] | EC50 ([1]; EC50 values for partial agonists) [nM] | SMILES |
| --- | --- | --- | --- |
| 204 |  |  | Nc1nccc(NCCNc2nc(N)nc3c2CCCc2ccccc2-3)n1 [Example 1, N^4-{2-[(2-aminopyrimidin-4-yl)amino]ethyl}-6,7-dihydro-5H-benzo[6,7]cyclohepta[1,2-d]pyrimidine-2,4-diamine] |
| 25 | 3.5 |  | CN(CCNc1ccnc(N)n1)c1nc(N)nc2c1CCCc1ccccc1-2 [Example 2, N^4-{2-[(2-aminopyrimidin-4-yl)amino]ethyl}-N^4-methyl-6,7-dihydro-5H-benzo[6,7]cyclohepta[1,2-d]pyrimidine-2,4-diamine] |
| 309 |  |  | Nc1nccc(NCCCNc2nc(N)nc3c2CCCc2ccccc2-3)n1 [Example 3, N^4-{3-[(2-aminopyrimidin-4-yl)amino]propyl}-6,7-dihydro-5H-benzo[6,7]cyclohepta[1,2-d]pyrimidine-2,4-diamine] |
| 1349 |  |  | Nc1ccnc(NCCNc2nc(N)nc3c2CCCc2ccccc2-3)n1 [Example 4, N^4-{2-[(4-aminopyrimidin-2-yl)amino]ethyl}-6,7-dihydro-5H-benzo[6,7]cyclohepta[1,2-d]pyrimidine-2,4-diamine] |
|  |  | 2340 | Nc1nccc(NCCNc2nc(N)nc3c2CCCC(c2ccccc2)C3)n1 (stereo not shown) [Example 11, N^4-{2-[(2-aminopyrimidin-4-yl)amino]ethyl}-8-phenyl-6,7,8,9-tetrahydro-5H-cyclohepta[d]pyrimidine-2,4-diamine] |
